Experimental data published in patent US12303521B2, “Methods for treating liver cancers using an orally administered dioxolane nucleotide in combination with an anti-PD1 or anti-PDL1 monoclonal antibody” (MEDIVIR AB, priority 2019, dated 2025).
“Also recorded” adds a separate entry of the source.

Key:
[1] = test system: HT-29 colorectal adenocarcinoma cell line+HDFn+PBMC; experiment: BioMAP StroHT29 system; assay type: cell-based, human; conditions: stromal IL-6, FIG. 14
From the text: (§1) To recapitulate the complex signaling networks that manifest in the multi-component TME, the BioMAP Oncology systems co-culture human primary immune cells with primary tissue cells in the presence of a specific cancer cell line. These co-cultures are stimulated with submitogenic levels of T cell receptor (TCR) ligands to prime, but not maximally activate T cells and model immune cells recruited to the intra-tumoural microenvironment.
There are two BioMAP Oncology panels that model the interactions between the immune-stromal (fibroblasts) and immune-vascular (endothelial cells) environments in the context of colon cancer (HT-29 CRC cell line), or in the context of non-small lung cancer (NCI-H1299 NSCLC cell line). The interactions between tumour cells, stimulated immune cells (peripheral blood mononuclear cells (PBMC)), and the host stromal network (human neonatal dermal fibroblasts (HDFn)) is captured in the Stro Oncology systems. […]
Adherent cell types are cultured in 96-well plates until confluent, followed by the addition of PBMC. […] Soluble factors from supernatants are quantified using either HTRF® detection, bead-based multiplex immunoassay or capture ELISA. Effects of test agents on cell viability (cytotoxicity) are measured by sulforhodamine B (SRB) for adherent cells (48-hrs), and by alamarBlue® reduction for cells in suspension (42-hrs) at the time points indicated. […]

[2] = pulmonary metastatic liver cancer, Wu et al 2017; cited from earlier work
HT-29 = experiment: Sensitivity of HT-29 cells to MIV-818 alone (IC50); assay type: cell-based; conditions: Homo sapiens; HT-29, MIV-818 alone
HepG2 = experiment: IC50 in representative HCC cell line HepG2; assay type: cell-based; conditions: Homo sapiens
[3] = Stability in human plasma; assay type: in vitro ADME
[4] = Stability in rodent blood / plasma; assay type: in vitro ADME
[5] = test system: vascular or stromal models of HT-29 and peripheral blood mononuclear cells (PBMCs); experiment: BioMAP Oncology CRC panel, system not specified (tumour immune microenvironment model); assay type: cell-based, human; conditions: 4 concentrations, 48-hrs, vs vehicle control
From the text: as §1
There are two BioMAP Oncology panels that model the interactions between the immune-stromal (fibroblasts) and immune-vascular (endothelial cells) environments in the context of colon cancer (HT-29 CRC cell line), or in the context of non-small lung cancer (NCI-H1299 NSCLC cell line). The interactions between tumour cells, stimulated immune cells (peripheral blood mononuclear cells (PBMC)), and the host stromal network (human neonatal dermal fibroblasts (HDFn)) is captured in the Stro Oncology systems. In parallel, the Vasc systems capture the interactions between tumour cells, activated immune cells and the vascular tissue (human umbilical vein endothelial cells (HUVEC). The biomarkers selected for the Oncology panels inform on activities related to inflammation, immune-function, tissue remodeling and metastasis in the context of a host tumour-microenvironment. Collectively, the Oncology CRC panel and the Oncology NSCLC panel.
Human primary cells in BioMAP systems are used at early passage (passage 4 or earlier) to minimize adaptation to cell culture conditions and preserve physiological signaling responses. All primary cells are pooled from multiple donors (n=3-6), commercially purchased and handled according to the recommendations of the manufacturers. The HT-29 CRC cell line and the NCI-H1299 NSCLC cell line are purchased from American Type Culture Collection (ATCC). Abbreviations are used as follows: human umbilical vein endothelial cells (HUVEC), peripheral blood mononuclear cells (PBMC), human neonatal dermal fibroblasts (HDFn) and T cell receptor (TCR). Systems in both the Oncology CRC and NSCLC panels are stimulated by sub-mitogenic levels of super antigens (SAg) acting via the TCR to recapitulate the recruitment of immune cells to the tumour environment in situ. These stimulation conditions are optimized to activate or prime T cells, but not drive T cell proliferation.
Cell types used in each of the CRC systems are as follows: StroHT29 system [HT-29 colorectal adenocarcinoma cell line+HDFn+PBMC] and VascHT29 system [HT-29 colorectal adenocarcinoma cell line+HUVEC+PBMC].
Adherent cell types are cultured in 96-well plates until confluent, followed by the addition of PBMC. Test agents prepared in either DMSO (small molecules; final concentration ≤0.1%) or PBS (biologics) are added at the specified concentrations 1-hr before stimulation, and remain in culture for 48-hrs. Each plate contains drug controls (e.g., legacy control test agent colchicine), negative controls (e.g., non-stimulated condition) and vehicle controls (e.g., 0.1% DMSO). Direct ELISA is used to measure biomarker levels of cell-associated and cell membrane targets. Soluble factors from supernatants are quantified using either HTRF® detection, bead-based multiplex immunoassay or capture ELISA. Effects of test agents on cell viability (cytotoxicity) are measured by sulforhodamine B (SRB) for adherent cells (48-hrs), and by alamarBlue® reduction for cells in suspension (42-hrs) at the time points indicated. All test agents are tested in standardized formats at 4 concentrations, in triplicate. Colchicine stimulated wells, vehicle control treated wells, and wells without stimulation are included as controls on each plate (n=3-8). Data acceptance criteria are based on plate performance (% CV of controls), and the performance of positive controls across assays with a comparison to historical controls. […]

Human PBMC = experiment: IL-2 expression in SEB-stimulated PBMC cultures; assay type: cell-based; conditions: five days, Luminex
SK-OV-3 tumour cells = experiment: PBMC-mediated tumour cell killing; assay type: cell-based, human; conditions: anti-CD3 stimulated PBMC co-culture, 68 hrs, 5000 nM MIV-818
Protocol: Whole blood from three healthy donors was used. PBMC were isolated over a density gradient and counted before adding to NucLight Red labelled tumour targets at a defined E:T ratio in the presence of anti-CD3 stimulation. Tumour cell—PBMC co-cultures were incubated with test compounds at eight concentrations. Appropriate controls were included: PBMC alone, tumour cells alone, tumour cells/PBMC in the presence of a reference compound at a single concentration. All test conditions were also plated onto tumour cells in the absence of stimulated PBMC in order to detect direct compound-associated tumour cytotoxicity. Tumour killing was evaluated by counting viable NucLight positive tumour cells over time. In addition, a Caspase 3/7 dye was used to identify apoptotic tumour cells. Cultures were analysed using an IncuCyte ZOOM machine which allows real-time quantitative live cell fluorescent imaging. Co-cultures were imaged over 68 hrs. Each culture condition was established in triplicate. Cell culture supernatants were stored for optional cytokine analysis.
PBMC were isolated from 3 healthy donors and added to co-cultures with anti-CD3 stimulation and NucLight Red labelled SK-OV-3 tumour cells. […] SK-OV-3 apoptotic cell death was monitored in the co-culture system by imaging for 68 hours using the IncuCyte Zoom software.

pembrolizumab: humanized monoclonal IgG4 antibody directed against human cell surface receptor PD-1
sIL-6 in the stromal HT-29 system [1]: increase; also recorded: modest enhancement
adverse event reported [2]: liver failure

CCC[C@H](C)OC(=O)[C@H](C)NP(=O)(OC[C@H]1OC[C@@H](n2ccc(N)nc2=O)O1)Oc1ccc(Br)cc1 (stereo in doubt) [MIV-818]
IC50 (HT-29): ~20 nM
IC50 (HepG2): ~20 nM
stability in human plasma [3]: stable
metabolism in rodent blood ([4]; rodent blood): very quickly metabolized
stability in rodent plasma ([4]; rodent plasma): extremely unstable
Collagen III [5]: decreased
IP-10 [5]: decreased
VCAM-1 [5]: decreased
sIFNγ [5]: increased
sIL-6 [5]: decreased
sIL-17A [5]: increased
uPAR [5]: Decreased
sIL-6 in the stromal HT-29 system [1]: inhibits
IL-2 expression (Human PBMC): induced
PBMC-mediated tumour cell killing (apoptotic SK-OV-3 counts) (SK-OV-3 tumour cells): enhance
